According to US6534637B2, “Synthesis of chlorophenol red glucuronic acid” (Beckman Coulter, Inc., priority 2001, dated 2003):

Tests used:
[1] = target: T1, purified β-glucuronidase (Sigma G-7896) (Escherichia coli, UniProt P05804); assay: Enzyme assay: suitability of the substrate for detecting β-glucuronidase; format: biochemical, E. coli; conditions: 50 MM sodium phosphate buffer, pH 7.0, 10 mM β-mercaptoethanol, 0.1% Triton X-100
T1 construct: purchased Sigma G-7896
Protocol: The suitability of the chlorophenol red β-D-glucuronic acid substrate (IVA) for detecting β-glucuronidase in a sample was tested following the procedure of Jefferson et al., PNAS (1986) Vol. 83, 8447-8451. The solid product (IVA) was dissolved in water to a final concentration of approximately 100 mM (red-orange product). An aliquot was added to 50 μM of purified β-glucuronidase (Sigma G-7896) in 50 MM sodium phosphate buffer, pH 7.0, 10 mM β-mercaptoethanol and 0.1% Triton X-100.

[2] = target: T2, E. coli α-D-Glucuronidase (Sigma, G7896) (Escherichia coli, UniProt P05804); assay: Sensitivity of GUD assay (reaction rates by OD, spectrophotometric); format: biochemical
T2 construct: purchased Sigma G7896
T2 sequence (P05804 whole entry): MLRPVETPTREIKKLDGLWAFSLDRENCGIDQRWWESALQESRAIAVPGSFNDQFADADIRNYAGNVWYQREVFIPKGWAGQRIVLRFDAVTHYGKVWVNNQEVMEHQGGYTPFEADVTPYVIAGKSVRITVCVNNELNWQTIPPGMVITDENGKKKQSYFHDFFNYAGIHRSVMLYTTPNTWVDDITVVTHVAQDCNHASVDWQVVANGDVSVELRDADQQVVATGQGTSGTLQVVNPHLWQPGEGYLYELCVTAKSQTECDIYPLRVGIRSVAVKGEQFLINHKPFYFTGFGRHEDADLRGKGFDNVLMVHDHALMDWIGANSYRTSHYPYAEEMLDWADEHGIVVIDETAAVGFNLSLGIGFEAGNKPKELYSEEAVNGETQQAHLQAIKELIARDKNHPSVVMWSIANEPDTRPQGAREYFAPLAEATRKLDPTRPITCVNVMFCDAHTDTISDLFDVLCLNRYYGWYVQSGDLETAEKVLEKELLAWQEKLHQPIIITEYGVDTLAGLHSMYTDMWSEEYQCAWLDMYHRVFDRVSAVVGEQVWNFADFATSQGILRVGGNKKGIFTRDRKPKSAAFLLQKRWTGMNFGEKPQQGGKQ
Protocol: E. coli […] (Sigma, G7896) was diluted in PBS buffer containing 10 mM DTT and 0.1% Triton X-100 and either substrate p-nitrophenol glucuronide (Sigma N1627) or phenolsulphonphthaleinyl (or chlorophenol red) glucuronide of the present invention. The final concentration of each substrate was1 mM. The final concentration of GUD was 60 pM, 125 pM, 250 pM, 500 pM, or 1000 pM. Readings of Optical Density (OD) were measured at 415 nm for assay with p-nitrophenol glucuronide and at 574 nm for assay with chlorophenol red glucuronide. OD measurements were conducted over 30 minutes at 37° C. in a Beckman DU70 spectrophotometer and the reaction rates were determined in mOD/min. […] Therefore, the sensitivity of the GUD assay utilizing a substrate of the present invention as compared to the sensitivity of GUD assay with a conventional substrate.

[3] = Solubility of the GUD substrates (statement); format: physicochemical; conditions: for liquid homogeneous assay formats

T1 sequence (P05804 whole entry): as above

O=C1C=C/C(=C(/c2ccc(OC3OC(C(=O)O)[C@@H](O)C(O)C3O)c(Cl)c2)c2ccccc2S(=O)(=O)[O-])C=C1Cl.[Na+] (stereo partly drawn) [IVA, Chlorophenol Red β-D-Glucuronic Acid]
Suitability as substrate: appearance of a violet product with absorbance maximum at 575 nm [1]: suitable for the detection of β-glucuronidase
Reaction rate (mOD/min) relative to the nitrophenol-glucuronide substrate ([2]; each substrate 1 mM, GUD 60-1000 pM, 37° C., 30 minutes, OD at 574 nm vs 415 nm): 5.76 fold
Signal intensity relative to nitro-phenol glucuronide (FIG. 1) ([2]; identical amounts of GUD added to each substrate): about six-fold
Solubility [3]: highly soluble
